The values below are quoted from earlier work in patent publication US20240115670A1, “FIBROBLAST ACTIVATION PROTEIN MODULATION TO ALTER IMMUNE CELL MIGRATION AND TUMOR INFILTRATION” (Georgetown University, priority 2021, published 2024).

One series concerns myeloma cells. Conditions: coculture with osteoclasts; cited from earlier work.
In series [1] the test system is advanced metastatic colorectal cancer. The settings on record: cited from earlier work.
Another series relates to myeloma. Conditions: in vivo; cited from earlier work.
For series [2], the system named is syngeneic tumors derived from fibrosarcoma, lymphoma, melanoma, mastocytoma, rhabdomyosarcoma and bladder cancer cell lines. The settings on record: oral administration; cited from earlier work.
The test system of series [3] is primitive hematopoietic progenitor cells. The settings on record: by increasing G-CSF, IL-6, and IL-11 from bone marrow stromal cells; cited from earlier work.
Another series relates to colon carcinoma. Conditions: combination with oxaliplatin; cited from earlier work.
Series [4] deals with advanced non-small cell lung cancer. Conditions: cited from earlier work.
A further series concerns the target serum DPPIV (Homo sapiens, UniProt P27487). The settings on record: cited from earlier work.
The next series deals with stage IV melanoma. Conditions: cited from earlier work.
The test system of a further series is CAF. Conditions: via downregulation of FAP; cited from earlier work.
The test system of another series is gastric cancer. Conditions: via downregulation of FAP; cited from earlier work.
For series [5], the system named is metastatic colorectal cancer. The settings on record: cited from earlier work.
Series [6] has as its system advanced or metastatic FAP+ cancer. Conditions: cited from earlier work.

serum DPPIV, sequence (P27487 39-766 limits assumed): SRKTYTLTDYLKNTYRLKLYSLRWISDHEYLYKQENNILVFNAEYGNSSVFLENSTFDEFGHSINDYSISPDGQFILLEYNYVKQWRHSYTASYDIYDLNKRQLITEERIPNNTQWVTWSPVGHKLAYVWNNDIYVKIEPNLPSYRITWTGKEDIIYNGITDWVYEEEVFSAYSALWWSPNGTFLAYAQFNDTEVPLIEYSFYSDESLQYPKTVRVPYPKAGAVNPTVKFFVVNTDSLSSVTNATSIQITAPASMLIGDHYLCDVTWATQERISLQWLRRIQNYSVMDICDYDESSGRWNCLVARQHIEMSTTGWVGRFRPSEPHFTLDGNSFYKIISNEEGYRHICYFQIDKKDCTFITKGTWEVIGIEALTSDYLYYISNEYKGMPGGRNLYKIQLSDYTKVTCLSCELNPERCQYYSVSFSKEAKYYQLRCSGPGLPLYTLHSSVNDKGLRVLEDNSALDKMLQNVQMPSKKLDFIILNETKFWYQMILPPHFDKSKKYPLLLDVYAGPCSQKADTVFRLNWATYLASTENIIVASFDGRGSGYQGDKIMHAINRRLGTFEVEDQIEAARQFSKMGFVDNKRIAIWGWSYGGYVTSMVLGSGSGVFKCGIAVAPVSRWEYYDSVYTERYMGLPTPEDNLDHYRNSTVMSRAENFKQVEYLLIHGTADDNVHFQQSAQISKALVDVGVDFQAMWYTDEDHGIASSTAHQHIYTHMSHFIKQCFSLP

For `CC(C)[C@H](N)C(=O)N1CCC[C@H]1B(O)O` [talabostat, Talabostat], the myeloma cell proliferation result in the series on myeloma cells is on record as “concentration-dependent decreased”. Also, the “Grade 5 adverse events” value in series [1] (single agent trial, acute renal failure due to cytokine storm) is reported as “one”. Further, the clinical responses entry in [1] (single agent) is on record as “no complete or partial responses”. Also, the “osteoclast activity, bone resorption and tumor burden” value in the series on myeloma was “reduced”. Also, the “growth of syngeneic tumors” value in series [2] is given as “slowed growth”. Further, the “growth of primitive hematopoietic progenitor cells” value in series [3] is “promoted growth”. Besides, in the series with colon carcinoma, the efficacy of oxaliplatin result is “enhanced”. The “patients with adverse events resulting in death” value in series [4] (none considered definitely or probably related to talabostat) is “eight”. Moreover, in [4] (with docetaxel), the durable complete responses entry is recorded as “two”, the overall response rate is given as 9.1%, the partial responses entry is “three” and the stable disease rate is 54%. Also, the “serum DPPIV inhibition” value on serum DPPIV (dose of 600 ug/m2, at 24 hours) is given as 85%. In addition, the dose-limiting toxicities entry at serum DPPIV (phase I, pediatric solid tumors) is given as “No dose-limiting toxicities were observed”. Further, in the series on stage IV melanoma (in vivo), the “patients discontinuing talabostat due to side effects” value is given as 18% and the “patients with grade 3 or 4 adverse events” value is recorded as 56%. In addition, in the series with stage IV melanoma (with cisplatin, second-line), the “patients with partial response” value was 8.1% and the “patients with stable disease” value was 62.5%.
In the case of polyphyllin, the “CAF proliferation in vitro” value with CAF is “decreased”. Moreover, the “tumor growth in vivo” value in the series with gastric cancer is given as “decreased”.
Take “sibrotuzumab: humanized monoclonal anti-FAP antibody”: in series [5] (in vivo), the tolerability result is on record as “well tolerated”. The clinical activity entry in [5] (phase II, trial suspended) is listed as “lack of clinical activity”. The dose limiting toxicity entry in series [6] (in vivo) is given as “one”. Further, in series [6] (phase I), the clinical responses entry is given as “no clinical responses” and the “patients with stable disease” value is recorded as 2/26.
